“Also recorded” adds a separate entry of the source.
How the values were obtained:
[1] = test system: P. multocida; experiment: MIC, P. multocida strains; assay type: cell-based; settings: Pasteurella multocida
Excerpt: (§1) Primary screening of the compounds of the invention included the evaluation of antibacterial activity of analogs through determination of microbial inhibition concentration (MIC) as per CLSI guidelines. The screening panel included the relevant BRD pathogens: 1) M. haemolytica (e.g., 12726, 46571 and 49023, all AHDRCC; and 33396 (ATCC)); and 2) P. multocida (e.g., 34135 and 46572 (both AHDRCC) and 43137 (ATCC)). In some instances, H. somni (A700025K) pathogens were also included in the screening panel. The AHDRCC strains originated from the Zoetis BRD/SRD surveillance program and refer to the Animal Health Development and Research Culture Collection. In addition, the screen assessed S. aureus (29213 ATCC) as a representative Gram-positive isolate, E.faecalis (19433 ATCC) as a commensal gram-positive gastrointestinal bacterium and E. coli (100, 3110 and 25922 (ATCC)) for the evaluation of efflux potential. The screening panel BRD pathogens were assessed in determining antibacterial activity of the Formula (1) compounds.
(§2) All relevant BRD pathogens were initially screened at a top concentration of 64 μg/mL of a Formula (1) compound in an eleven-point dilution series. […] If an Example was purified further, the MICs moved […] essentially two dilutions across all strains tested in the screening panel.
(§3) In-Vitro MIC Model Compounds were analyzed for antibacterial activity against a panel of animal health specific gram-positive and gram-negative clinical strains by diluting compounds in DMSO to an appropriate stock concentration to determine the Minimal Inhibitory Concentration (MIC) via a semi-automated broth micro-dilution method (CLSI reference method) with QC strains and anti-microbial agent(s). Specifically, bacteria were grown overnight on TSA w/5% sheep blood agar plates and diluted in saline buffer to a McFarland Standard 0.5, then further diluted in cation-ion adjusted Mueller Hinton Broth to a final concentration of approximately 5×10^5 CFU/mL. 100 μL of inoculated media was added to 96-well plate(s) with 3 μL of serially diluted compound in each row. Depending on strain (see CLSI reference method), bacteria were incubated 18-22 hours at 35-37° C. in ambient air, with 5% CO2 or anaerobically (up to 48 hours).

[2] = test system: S. aureus; experiment: MIC, S. aureus; assay type: cell-based; settings: Staphylococcus aureus; S. aureus 29213
Excerpt: as §1, §2, §3

[3] = test system: M. haemolytica challenge model; experiment: Separate study, M9 versus saline control: lung lesions and mortality; assay type: in vivo; settings: 10 mg/kg; saline control 38.9%, p=0.025
Excerpt: BRD infection as compared to saline (T01) in the M. haemolytica challenge model. […] Additionally, reduction of biomarkers consistent with the proposed mechanism were observed.

[4] = test system: CD163; experiment: CD163 expression by flow cytometry, cattle; assay type: in vivo, bovine; settings: monocytes/macrophages of whole blood
Method: CD163 Expression by Flow Cytometry-Fresh whole bovine blood samples were collected into EDTA vacutainer tubes, placed on ice and processed within two hours of collection. Blood was placed in 96 well round bottom plates at 30 μL per well, 5 μL of goat serum was added as a blocking reagent and the plate was rocked at 4° C. for approximately 15 minutes. To label cells, 10 μL of a master mix panel of antibodies including anti-CD14 (BioLegend #301854), anti-CD172a (BioRad #MCA2041C), anti-CD163 (Kingfisher #WSC0832B-100) and anti-CD16 (BioRad #MCA5665F), was added to the samples and returned to 4° C. (protected from light) for 30 minutes. Single stain controls were included for use in fluorescence compensation matrices. Red blood cells were removed by adding 200 μL of lysis buffer and incubating for 10 minutes at room temperature while rocking. The plate was then centrifuged at 270×g for three minutes and supernatant removed. This step was repeated until supernatant was clear. 200 μL of FACS buffer was added to each well to wash cells, centrifuged as above, resuspended in 80 μL of FACS buffer and read immediately on a digital FACS Canto II HTS (BD Bioscience) flow cytometer. Data was analyzed using FlowJo software (BD Bioscience). Macrophage subpopulations were determined using CD172, CD14, CD16 markers and assessed for expression of CD163. […]

[5] = test system: P. multocida; experiment: Murine P. multocida intranasal challenge study, treatment 18 hours after challenge, survival; assay type: in vivo, mice; settings: subcutaneous 18 hours after challenge (5×10^3 CFU/mouse); tulathromycin 16 mg/kg, M9 32 mg/kg, ceftiofur 9 mg/kg
Method: In one murine P. multocida intranasal challenge study, mice were administered tulathromycin (16 mg/kg; T02), M9 (32 mg/kg; T03), or ceftiofur (9 mg/kg; T04) by subcutaneous injection 18 hours after bacterial challenge (5×10^3 CFU/mouse) for lung tissue RNA sequence analysis. Survival at Day 7 was about 80%, 50%, and 90% for T02, T03, and T04, respectively, compared to placebo at 0%. Differential gene expression from total lung tissue RNA sequence analysis indicated at least 226 unique genes were up or down regulated (with significance) for T03. Output from ingenuity pathway analysis of these unique genes predicted major upstream regulators of the involved pathways. Data was analyzed based on the number of genes being modulated in the same direction that were associated with a given upstream regulator. An activation z-score of 2 or greater is considered significant and the direction change is indicated by + (activated) or -(inhibited). The top 5 pathways included: IL-9 signaling, glucocorticoid receptor signaling, prolactin signaling, JAK STAT signaling, and IL-17 signaling. The top 6 upstream regulators (activation z-score) included: lipopolysaccharide (−6.725), TNF (−4.669), IFNγ (−5.759), IL-1β (−5.947), STAT1 (−2.787), and poly rl: rC-RNA (−5.289). Even though this study was run in the murine model, the top upstream regulators identified as being modulated by M9 include an almost ubiquitous overlap with the pathways identified in the natural disease study as being key mediators in BRD, and therefore is modulating highly relevant pathways in BRD pathobiology.

[6] = P. multocida 46572, murine efficacy challenge strain

Q: Which results are given for `CC[C@H]1OC(=O)[C@H](C)[C@@H](O)[C@H](C)[C@@H](O[C@@H]2O[C@H](C)C[C@H](N(C)S(=O)(=O)c3ccccc3)[C@H]2Oc2ccc(OC)cc2)[C@](C)(O)C[C@@H](C)CN[C@H](C)[C@@H](O)[C@]1(C)O` [Example A-9, N-((2S,3R,4S,6R)-2-(((2R,3S,4R,5R,8R,10R,11R,12S,13S,14R)-2-ethyl-3,4,10,13-tetrahydroxy-3,5,8,10, 12, 14-hexamethyl-15-oxo-1-oxa-6-azacyclopentadecan-11-yl)oxy)-3-(4-methoxyphenoxy)-6-methyltetrahydro-2H-pyran-4-yl)-N-methylbenzenesulfonamide]?
A: MIC ([1]; P. multocida 43137): > 64 µg/mL; MIC [1, 6]: > 64 µg/mL; MIC [2]: > 64 µg/mL

Q: Which MIC ([1]; P. multocida 43137) does the source give for `CCCNC[C@]1(O)[C@H](C)O[C@@H](O[C@H]2[C@H](C)[C@@H](O[C@@H]3O[C@H](C)C[C@H](N(C)S(=O)(=O)c4ccc(C)cc4)[C@H]3O)[C@](C)(O)C[C@@H](C)CN[C@H](C)[C@@H](O)[C@](C)(O)[C@@H](CC)OC(=O)[C@@H]2C)C[C@@]1(C)OC` [Example B-26, N-((2S,3R,4S,6R)-2-(((2R,3S,4R,5R,8R,10R,11R,12S,13S,14R)-2-ethyl-3,4,10-trihydroxy-13-(((2R,4R,5S,6S)-5-hydroxy-4-methoxy-4,6-dimethyl-5-((propylamino)methyl)tetrahydro-2H-pyran-2-yl)oxy)-3,5,8,10,12,14-hexamethyl-15-oxo-1-oxa-6-azacyclopentadecan-11-yl)oxy)-3-hydroxy-6-methyltetrahydro-2H-pyran-4-yl)-N,4-dimethylbenzenesulfonamide] here?
A: Its MIC is greater than 64 µg/mL.

Q: And the MIC [1, 6]?
A: The MIC was greater than 64 µg/mL.

Q: And the MIC [2]?
A: Its MIC is greater than 64 µg/mL.

Q: Which MIC ([1]; P. multocida 43137) does the source give for `CC[C@H]1OC(=O)[C@H](C)[C@@H](O[C@H]2C[C@@](C)(OC)[C@](O)(CN3CCCCC3)[C@H](C)O2)[C@H](C)[C@@H](O[C@@H]2O[C@H](C)C[C@H](N(C)S(=O)(=O)c3ccc(Cl)cc3)[C@H]2O)[C@](C)(O)C[C@@H](C)CN[C@H](C)[C@@H](O)[C@]1(C)O` [Example C-4, 4-chloro-N-((2S,3R,4S,6R)-2-(((2R,3S,4R,5R,8R,10R,11R,12S,13S,14R)-2-ethyl-3,4,10-trihydroxy-13-(((2R,4R,5S,6S)-5-hydroxy-4-methoxy-4,6-dimethyl-5-(piperidin-1-ylmethyl)tetrahydro-2H-pyran-2-yl)oxy)-3,5,8, 10, 12, 14-hexamethyl-15-oxo-1-oxa-6-azacyclopentadecan-11-yl)oxy)-3-hydroxy-6-methyltetrahydro-2H-pyran-4-yl)-N-methylbenzenesulfonamide] here?
A: The MIC was greater than 128 µg/mL.

Q: And the MIC [1, 6]?
A: The MIC was greater than 128 µg/mL.

Q: And the MIC [2]?
A: Its MIC is greater than 128 µg/mL.

Q: Which MIC ([1]; P. multocida 43137) does the source give for `CCCNC[C@]1(O)[C@H](C)O[C@@H](O[C@H]2[C@H](C)[C@@H](O[C@@H]3O[C@H](C)C[C@H](N(C)S(=O)(=O)Nc4ccc(C(F)(F)F)cc4)[C@H]3O)[C@](C)(O)C[C@@H](C)CN[C@H](C)[C@@H](O)[C@](C)(O)[C@@H](CC)OC(=O)[C@@H]2C)C[C@@]1(C)OC` [Example B-50, (2R,3S,4R,5R,8R,10R,11R,12S,13S, 14R)-2-ethyl-3,4,10-trihydroxy-13-[(2R,4R,5S,6S)-5-hydroxy-4-methoxy-4,6-dimethyl-5-(propylaminomethyl)oxan-2-yl]oxy-11-[(2S,3R,4S,6R)-3-hydroxy-6-methyl-4-[methyl-[[4-(trifluoromethyl)phenyl]sulfamoyl]amino]oxan-2-yl]oxy-3,5,8, 10, 12, 14-hexamethyl-15-oxo-1-oxa-6-azacyclopentadecane] here?
A: Its MIC is greater than 64 µg/mL.

Q: And the MIC [1, 6]?
A: The MIC was greater than 64 µg/mL.

Q: What about the MIC [2] of the same compound?
A: The MIC was greater than 64 µg/mL.

Q: With `CC[C@H]1OC(=O)[C@H](C)[C@@H](O[C@H]2C[C@@](C)(OC)[C@](O)(CN3CCCCC3)[C@H](C)O2)[C@H](C)[C@@H](O[C@@H]2O[C@H](C)C[C@H](N(C)S(=O)(=O)Nc3ccc(C(F)(F)F)cc3)[C@H]2O)[C@](C)(O)C[C@@H](C)CN[C@H](C)[C@@H](O)[C@]1(C)O` [Example C-11, (2R,3S,4R,5R,8R,10R,11R,12S, 13S, 14R)-2-ethyl-3,4, 10-trihydroxy-13-[(2R,4R,5S,6S)-5-hydroxy-4-methoxy-4,6-dimethyl-5-(piperidin-1-ylmethyl)oxan-2-yl]oxy-11-[(2S,3R,4S,6R)-3-hydroxy-6-methyl-4-[methyl-[[4-(trifluoromethyl)phenyl]sulfamoyl]amino]oxan-2-yl]oxy-3,5,8, 10, 12, 14-hexamethyl-15-oxo-1-oxa-6-azacyclopentadecane] as the compound, how does the MIC ([1]; P. multocida 43137) read?
A: Its MIC is greater than 64 µg/mL.

Q: What about the MIC [1, 6] of the same compound?
A: Its MIC is greater than 64 µg/mL.

Q: What about the MIC [2] of the same compound?
A: The MIC was greater than 64 µg/mL.

Q: How did the Mortality [3] turn out when `CCCNC[C@]1(O)[C@H](C)O[C@@H](O[C@H]2[C@H](C)[C@@H](O[C@@H]3O[C@H](C)C[C@H](NC)[C@H]3O)[C@](C)(O)C[C@@H](C)CN[C@H](C)[C@@H](O)[C@](C)(O)[C@@H](CC)OC(=O)[C@@H]2C)C[C@@]1(C)OC` [Example M9, (2R,3S,4R,5R,8R,10R,11R,12S,13S,14R)-2-ethyl-3,4, 10-trihydroxy-13-(((2R,4R,5S,6S)-5-hydroxy-4-methoxy-4,6-dimethyl-5-((propylamino)methyl)-tetrahydro-2H-pyran-2-yl)oxy)-11-(((2S,3R,4S,6R)-3-hydroxy-6-methyl-4-(methylamino)tetrahydro-2H-pyran-2-yl)oxy)-3,5,8,10,12,14-hexamethyl-1-oxa-6-azacyclopentadecan-15-one] was run?
A: Its Mortality is 13%.

Q: What about the CD163 expression [4] of the same compound?
A: The CD163 expression was “suppressed; also recorded: mitigates the pathologic increase in CD163 expression”.

Q: What about the “Survival at Day 7” value [5] of the same compound?
A: Its value is roughly 50%.

From patent publication US20250236616A1, “IMMUNOMODULATING AZALIDES” (Zoetis Services LLC, priority 2021, published 2025)
